Assay results from patent US20260262641A1 (priority 2023, published 2026).

How the values were obtained:
[1] = system: couch mite (Aceria cynodoniensis); assay: Field trial in Santa Ana couch turfgrass, control of couch mite (Example 3); type: in vivo
Description: (§1) A field trial was conducted in Santa Ana couch turfgrass, to evaluate fenpyroximate for control of couch mite (Aceria cynodoniensis). The trial was located at Terrey Hills Golf and Country Club, New South Wales (−33.668, 151.217). […] All treatments were applied using a hand boom fitted with XR11004 nozzles and in a spray volume of 430 L/ha.
The incidence of couch mite damage, to the terminal growth point (known as witches' broom) was assessed 42 days after the second application. Turf biomass and vigor were assessed at the same timing on a 0 to 10 rating scale, along with NDVI using a Greenseeker.
(§2) All data was statistically analyzed using analysis of variance and Fisher's protected least significant different test (Fishers LSD). The level of significance for all tests was P<0.05.

[2] = system: insecticide-resistant population of redlegged earth mite (H. destructor; RLEM); assay: whole plant or invertebrate; conditions: Halotydeus destructor, 24 h, read-out: % RLEM mortality, Resistant
Description: (§3) The insecticide-susceptible H. destructor population tested in this bioassay was collected from burr medic (Medicago polymorpha) and barley grass (Hordeum leporinum) in Moulamein, NSW (−35.102, 144.026), a site with no known history of insecticide application. […] Mites were collected via suction using a Stihl SH55 blower vacuum, placed in plastic containers with paper towel and vegetation, and transported back to the laboratory, where they were stored at 4° C. until testing.
(§4) Serial dilutions were prepared for each insecticide (Table 9), with the addition of a non-ionic surfactant (Tween 20) at 0.01% to aid the spread of the insecticide and ensure even coating. […] Nine concentrations of bifenthrin were tested, ranging from 1×10^−5 to 10 times the field rate of 40 mL diluted in 100 L of water (100 mg a.i./L). Seven concentrations of omethoate were tested, ranging from 1×10^−5 to 10 times the field rate of 100 mL in 100 L of water (290 mg a.i./L).
(§5) Six vials were coated per concentration and were left to dry overnight. Control vials were treated in the same way, except water (with the addition of 0.01% Tween) was used. The next day, eight individual H. destructor were then placed into each vial along with 2-3 leaves of common vetch (Vicia sativa), which provided food and humidity. Vials were then sealed with a screw lid and placed in a controlled temperature cabinet at 18° C. After 24-hours exposure, mites were scored as alive (moving freely), incapacitated (inhibited movement), or dead (no movement over a 5 second period).
(§6) Dose-response curves were generated by plotting percentage mortality against log concentration. A series of logistic models were used to quantify the sensitivity of H. destructor to each chemical and to test whether any differences in sensitivity were present between the two populations. Logistic regression is well suited for the analysis of binary response data (e.g., dead/alive). Each model included chemical concentration and H. destructor population as fixed-effect predictors, which allowed testing for whether populations had average differences in mortality (i.e., model intercept) via F tests. It was then determined if populations had differences in mortality that were dependent on chemical concentration (i.e., differences in regression slopes) by comparing the inclusion of a population×concentration predictor (i.e., allowing slopes to vary between populations). […] The resulting LC50 values were used to quantify the level of insecticide resistance (resistance ratios) relative to the known insecticide-susceptible population. All analyses were conducted using R version 4.3.1 (R Development Core Team 2023).

[3] = system: insecticide-susceptible population of redlegged earth mite (H. destructor; RLEM); assay: whole plant or invertebrate; conditions: Halotydeus destructor, 24 h, read-out: % RLEM mortality, Susceptible
Description: as §3, §4, §5, §6

[4] = system: redlegged earth mite (H. destructor; RLEM); assay: Field trial in canola, pre- or post-emergent control of RLEM (Example 5); type: in vivo, Halotydeus destructor
Description: A field trial was conducted in canola cv. Garrison, to evaluate fenpyroximate for control of redlegged earth mite (H. destructor; RLEM) as a pre- or post-emergent application. The trial was located at Beverley, Western Australia (−32.2248085, 117.0268493). The canola was sown on 13th June 2023. […] All treatments were applied using a hand boom fitted with flat fan nozzles in a spray volume of 100 L/ha.
The density of RLEM was assessed 33 days after the second application timing by counting the number of mites per plant.
as §2

[5] = system: couch mite (Aceria cynodoniensis); assay: Field trial in hybrid couch turfgrass, control of couch mite (Example 7); type: in vivo
Description: as §1, with “hybrid” for “Santa Ana”, “Oxley” for “Terrey Hills”, “Golf” for “Golf and Country”, “Oxley Queensland (−27.57077, 152.99762).” for “New South Wales (−33.668, 151.217).”
The severity of couch mite damage to the terminal growth point (known as witches' broom) was assessed pre-spraying, then at 42 and 56 days after the second application. The density of couch mite was assessed pre-spraying and at 28 days after the second application. Turf quality was assessed on a 0 to 9 rating scale (0=dead; 9=best quality/color) prior to the first application and 14 days after the second application.
as §2

[6] = system: ground pearl (Margarodes spp); assay: Field trial in kikuyu turf, control of ground pearl, Robina (Example 6); type: in vivo; conditions: 56 DAA3 (head); 0=dead; 10=best quality/color; product rate mL/ha: Meridian 1200, Kohinor 350 SC 1500, Fenpyroximate 50 SC 4000; each with Stamina B 20000
[7] = Pre-spray (baseline), witches' broom

SMILES: Cc1nn(C)c(Oc2ccccc2)c1C=NOCc1ccc(C(=O)OC(C)(C)C)cc1 [Fenpyroximate]
- Biomass and vigor (0-10), 42 DAA2 ([1]; 42 DAA2, 0 to 10 rating scale, product rate mL/ha: Prophesy 500, Thumper 2000 (+ BS 1000 0.25% v/v), Fenpyroximate 50 SC 4000): 4.8
- NDVI, 42 DAA2 ([1]; 42 DAA2, Greenseeker, product rate mL/ha: Prophesy 500, Thumper 2000 (+ BS 1000 0.25% v/v), Fenpyroximate 50 SC 4000): 0.63
- % Incidence mite damage, 42 DAA2 ([1]; 42 days after second application, product rate mL/ha: Prophesy 500, Thumper 2000 (+ BS 1000 0.25% v/v), Fenpyroximate 50 SC 4000 (200 g ai/ha)): 47.0%
- Biomass and vigor (0-10), Pre-spray ([1]; Pre-spray (baseline), 0 to 10 rating scale): 4.1 a
- NDVI, Pre-spray ([1]; Pre-spray (baseline), Greenseeker): 0.55 a
- % Incidence mite damage, Pre-spray [1, 7]: 95.8 a %
- incidence of couch mite damage (in words) ([1]; versus untreated, P<0.05): significantly reduced
- turf biomass and vigor and NDVI (in words) ([1]; versus untreated, P<0.05): significantly improved
- mortality at 0.1 µg/mL [2]: 4.6%
- mortality at 10 µg/mL [2]: 11.2%
- mortality at 100 µg/mL [2]: 45.7%
- mortality at 300 µg/mL [2]: 86.3%
- mortality at 1000 µg/mL [2]: 100%
- mortality at 10000 µg/mL [2]: 100%
- mortality at 0.1 µg/mL [3]: 6.9%
- mortality at 1 µg/mL [3]: 12.6%
- mortality at 10 µg/mL [3]: 11.3%
- mortality at 100 µg/mL [3]: 47.3%
- mortality at 300 µg/mL [3]: 92.2%
- mortality at 1000 µg/mL [3]: 98.5%
- mortality at 10000 µg/mL [3]: 100%
- % Control (33 DAA2) ([4]; application timing A (post-sow pre-emergent), product rate 1000 mL/ha): 67%
- % Control (33 DAA2) ([4]; application timing A (post-sow pre-emergent), product rate 2000 mL/ha): 61%
- % Control (33 DAA2) ([4]; application timing B (early post-emergent, 1 to 2 leaf canola), product rate 1000 mL/ha): 63%
- % Control (33 DAA2) ([4]; application timing B (early post-emergent, 1 to 2 leaf canola), product rate 2000 mL/ha): 68%
- Couch mites/3 terminals, 28 DAA2 ([5]; 28 DAA2, product rate mL/ha: Abazine Miticide 1350, Fenpyroximate 50 SC 2000): 45.8 mites/3 terminals
- Turf quality (0-9), 14 DAA2 ([5]; 14 days after second application, 0=dead, 9=best quality/color, product rate mL/ha: Abazine Miticide 1350, Fenpyroximate 50 SC 2000): 5.1
- % Severity mite damage, 42 DAA2 ([5]; 42 days after second application, product rate mL/ha: Abazine Miticide 1350, Fenpyroximate 50 SC 2000 (100 g ai/ha)): 7.0 a %
- % Severity mite damage, 56 DAA2 ([5]; 56 days after second application, product rate mL/ha: Abazine Miticide 1350, Fenpyroximate 50 SC 2000 (100 g ai/ha)): 6.5 a %
- Couch mites/3 terminals, Pre-spray ([5]; Pre-spray (baseline)): 130.5 mites/3 terminals
- Turf quality (0-9), Pre-spray ([5]; Pre-spray (baseline), 0=dead, 9=best quality/color): 4.5
- % Severity mite damage, Pre-spray [5, 7]: 40.0%
- density of couch mite (in words) ([5]; versus untreated, P<0.05): significantly both reduced
- turf quality (in words) ([5]; versus untreated, P<0.05): improved
- Turf vigor (0-10), 56 DAA3 [6]: 6.2 a
